Measurements: ChEMBL document CHEMBL3351235, “β-amino-alcohol tethered 4-aminoquinoline-isatin conjugates: synthesis and antimalarial evaluation” (Eur J Med Chem, 2014)

Legend:
Plasmodium falciparum = experiment: Antimalarial activity against chloroquine-resistant ring stage Plasmodium falciparum W2 assessed as parasitemia after 48 hrs by flow cytometry; type: functional, organism-based; conditions: W2, 48 h
[1] = Cytotoxicity against human HCT116 cells at 2 uM after 48 hrs by MTT assay relative to untreated control; conditions: hct-116, 48 h
[2] = Cytotoxicity against human HCT116 cells at 20 uM after 48 hrs by MTT assay relative to untreated control; conditions: hct-116, 48 h
[3] = Cytotoxicity against human HCT116 cells at 0.2 uM after 48 hrs by MTT assay relative to untreated control; conditions: hct-116, 48 h

Row | Compound | IC50 (Plasmodium falciparum) | INH [1] | INH [2] | INH [3]
1 | O=C1C(=O)N(CC(CO)NCCCNc2ccnc3cc(Cl)ccc23)c2ccc(F)cc21 (centres undefined) | 72.3 nM | 12% | 66% | -2%
2 | O=C1C(=O)N(CC(CO)NCCCCNc2ccnc3cc(Cl)ccc23)c2ccc(Cl)cc21 (centres undefined) | 101 nM | – | – | –
3 | O=C1C(=O)N(CC(CO)NCCCCNc2ccnc3cc(Cl)ccc23)c2ccccc21 (centres undefined) | 48.7 nM | -5% | 37% | 0%
4 | O=C1C(=O)N(CC(CO)NCCNc2ccnc3cc(Cl)ccc23)c2ccc(F)cc21 (centres undefined) | 488 nM | – | – | –
5 | O=C1C(=O)N(CC(CO)NCCNc2ccnc3cc(Cl)ccc23)c2ccccc21 (centres undefined) | 24.9 nM | 2% | 91% | 0%
6 | O=C1C(=O)N(CC(CO)N2CCN(c3ccnc4cc(Cl)ccc34)CC2)c2ccc(F)cc21 (centres undefined) | 1850 nM | – | – | –
7 | Cc1ccc2c(c1)C(=O)C(=O)N2CC(CO)N1CCN(c2ccnc3cc(Cl)ccc23)CC1 (centres undefined) | 1220 nM | – | – | –
8 | Cc1ccc2c(c1)C(=O)C(=O)N2CC(CO)NCCCCCCNc1ccnc2cc(Cl)ccc12 (centres undefined) | 55.8 nM | – | – | –
9 | O=C1C(=O)N(CC(CO)N2CCN(c3ccnc4cc(Cl)ccc34)CC2)c2ccc(Cl)cc21 (centres undefined) | 1960 nM | – | – | –
10 | C[C@@H]1CC[C@H]2[C@@H](C)C(=O)O[C@@H]3O[C@@]4(C)CC[C@@H]1[C@]32OO4 [ARTEMISININ] | 4.37 nM | – | – | –
11 | O=C1C(=O)N(CC(CO)NCCCCNc2ccnc3cc(Cl)ccc23)c2ccc(F)cc21 (centres undefined) | 45.3 nM | 0% | 83% | -1%
12 | Cc1ccc2c(c1)C(=O)C(=O)N2CC(CO)NCCCNc1ccnc2cc(Cl)ccc12 (centres undefined) | 302 nM | – | – | –
13 | COc1cccc2c1C(=O)c1c(O)c3c(c(O)c1C2=O)C[C@@](O)(C(=O)CO)C[C@@H]3O[C@H]1C[C@H](N)[C@H](O)[C@H](C)O1 [DOXORUBICIN] | – | 79% | 79% | 84%
14 | O=C1C(=O)N(CC(CO)NCCNc2ccnc3cc(Cl)ccc23)c2ccc(Cl)cc21 (centres undefined) | 11.7 nM | -11% | 88% | 0%
15 | O=C1C(=O)N(CC(CO)N2CCN(c3ccnc4cc(Cl)ccc34)CC2)c2ccccc21 (centres undefined) | 216 nM | – | – | –
16 | Cc1ccc2c(c1)C(=O)C(=O)N2CC(CO)NCCCCNc1ccnc2cc(Cl)ccc12 (centres undefined) | 58 nM | – | – | –
17 | O=C1C(=O)N(CC(CO)NCCCCCCNc2ccnc3cc(Cl)ccc23)c2ccccc21 (centres undefined) | 62.9 nM | – | – | –
18 | O=C1C(=O)N(CC(CO)NCCCNc2ccnc3cc(Cl)ccc23)c2ccc(Cl)cc21 (centres undefined) | 13.5 nM | 2% | 46% | 0%
19 | O=C1C(=O)N(CC(CO)NCCCNc2ccnc3cc(Cl)ccc23)c2ccccc21 (centres undefined) | 75.5 nM | -12% | 85% | 2%
20 | O=C1C(=O)N(CC(CO)NCCCCCCNc2ccnc3cc(Cl)ccc23)c2ccc(F)cc21 (centres undefined) | 59.6 nM | – | – | –
21 | O=C1C(=O)N(CC(CO)NCCCCCCNc2ccnc3cc(Cl)ccc23)c2ccc(Cl)cc21 (centres undefined) | 49.7 nM | – | – | –
